# pIC50: −log10 of the molar value. Where “and” joins values, the source holds several entries; their conditions need not be identical. Identical values can stand only once.
# Columns and labels:
# GATA3 = biological target: T1, GATA3 (Homo sapiens, UniProt P23771); test: AlphaScreen DNA-binding assay, GATA3 with GATA consensus DNA
# T1 construct: we synthesized the recombinant full-length GATA3 protein with an N-terminal FLAG tag using the wheat cell-free system; made in house; host or cells: wheat cell-free protein synthesis system (WEPRO1240 kit)
# T1 sequence (P23771 whole entry, species assumed): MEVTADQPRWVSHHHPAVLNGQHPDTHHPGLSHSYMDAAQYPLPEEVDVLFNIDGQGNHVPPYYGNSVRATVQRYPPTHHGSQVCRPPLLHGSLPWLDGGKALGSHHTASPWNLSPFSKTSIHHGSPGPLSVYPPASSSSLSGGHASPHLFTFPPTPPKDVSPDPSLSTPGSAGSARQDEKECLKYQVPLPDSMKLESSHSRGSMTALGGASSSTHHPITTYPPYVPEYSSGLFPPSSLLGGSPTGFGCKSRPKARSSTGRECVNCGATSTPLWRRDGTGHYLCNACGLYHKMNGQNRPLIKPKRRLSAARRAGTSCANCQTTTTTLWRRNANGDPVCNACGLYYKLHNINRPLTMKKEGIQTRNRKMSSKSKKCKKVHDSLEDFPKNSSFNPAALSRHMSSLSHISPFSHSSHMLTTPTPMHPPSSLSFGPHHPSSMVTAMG
# Description: For the protein-DNA binding assay on a 384-well AlphaPlate (Perkin Elmer), 10 μL of bait protein mixture containing 1 µL FLAG-tagged protein in AlphaScreen Buffer (100 mM Tris-HCl (pH 8.0), 150 mM NaCl, 0.1% Tween 20, and 1 mg/mL BSA) and 5 µL biotinylated oligonucleotide (0–10 µM final concentration) in AlphaScreen Buffer were dispended into the AlphaPlate. Then, the plate was incubated at 26 °C for 1 h. After incubation, 10 μL of the detection mixture containing 0.4 µg/mL Anti-DYKDDDDK antibody (1E6, Wako), 0.1 μL streptavidin-conjugated AlphaScreen donor beads, and 0.1 μL protein A-conjugated AlphaScreen acceptor beads in AlphaScreen Buffer was mixed and incubated at 26 °C for 1 h, and then, the AlphaScreen signal was detected using an EnVision device with the AlphaScreen signal detection program (PerkinElmer).
# For the AlphaScreen-based chemical library screening, we used a diverse set of 9,600 synthesized chemicals established by the Drug Discovery Initiative (The University of Tokyo, Tokyo, Japan). All chemical compounds (10 mM) were dissolved in DMSO, and were pre-dispensed into a 384-well Alphaplate (250 nL/well). […] The AlphaScreen signal was detected using an EnVision device with the AlphaScreen signal detection program (PerkinElmer). […]
# GATA3-SOX4 interaction = biological target: T2, GATA3-SOX4 interaction (Homo sapiens, UniProt P23771); test: AlphaScreen binding assay of GATA3 and SOX4; details: pyrrothiogatain 0 to 100 µM
# T2 construct: we synthesized the recombinant full-length GATA3 protein with an N-terminal FLAG tag using the wheat cell-free system; made in house; host or cells: wheat cell-free protein synthesis system (WEPRO1240 kit), BirA added for biotinylation
# T2 sequence (P23771 whole entry): as the sequence (P23771 whole entry, species assumed) above
# Description: The GATA3 protein has been reported to directly interact with SOX4[22]. We next investigated whether pyrrothiogatain interrupted the interaction between GATA3 and SOX4. […] Interaction between biotin-labelled SOX4 and FLAG-GATA3 was analysed by the AlphaScreen system (Fig. 4B).
# Figure 4 Pyrrothiogatain inhibits the GATA3–SOX4 interaction. (A) Immunoblot analysis of biotin fused recombinant SOX4 (Biotin-SOX4) synthesized by the wheat cell-free system. The whole translational mixture (W) and the supernatant (S) were analysed using an anti-biotin antibody. (B) A schematic diagram of the binding assay to detect the direct binding between GATA3 and SOX4. When FLAG-tagged GATA3 binds with biotin fused SOX4, AlphaScreen beads generate a luminescent signal. (C) The binding assay of GATA3 and SOX4. The luminescence signals were detected by AlphaScreen technology. FLAG-DHFR was used as a control. (D) The inhibition assay of the binding of GATA3 and SOX4 in the presence of various concentrations of pyrrothiogatain (0 to 100 µM). The binding activity was calculated from the AlphaScreen signal. (E) The binding of recombinant GATA3 with SOX4 in the presence of pyrrothiogatain (0 to 100 µM) was assessed by immunoprecipitation assay. […] In (C,D), all data are expressed as individual points of three independent experiments with error bars indicating standard deviation.
# GATA3 expression = test: Intracellular staining of GATA3, CD4+ T cells under IL-2 conditions; format: cell-based, mouse; details: 30 µM, two days
# Description: The in vitro differentiated CD4^+ T cells were stimulated using an immobilized anti-TCR-β mAb (3 µg/ml, H57–597, BioLegend) for 6 h in the presence of monensin (2 µM). The cells were fixed with 4% paraformaldehyde (Cat#163–20145, Wako) and permeabilized with permeabilization buffer (50 mM NaCl, 5 mM EDTA, 0.02% NaN3, and 0.5% Triton X-100). Then, the cells were stained using the following antibodies, anti-IL-4-PE (Cat#504103, BioLegend, 1:50), anti-IL-5-APC (Cat#504305, BioLegend, 1:50), anti-IL-13-PE (Cat#12–7133–41, eBiosience, 1:50), anti-IFN-γ-FITC (Cat#562019, BD Biosciences, 1:500), and anti-IL-2-APC (Cat#503809, BioLegend, 1:50). For the intracellular staining of Gata3, the Foxp3/Transcription Factor Staining Buffer Kit (cat#TNB-0607, TONBO) was used according to the manufacturer’s protocol. Flow cytometry was performed using a Gallios Flow Cytometer instrument (Beckman Coulter) and a FACS Caliber instrument (BD Biosciences) and the results were analysed using the FlowJo software program (Tree Star, Ashland, OR, USA).
# (D) Intracellular staining of GATA3 in CD4+ T cells stimulated with immobilized anti-TCRβ mAb plus anti-CD28 mAb under IL-2 conditions in the presence or absence of pyrrothiogatain (30 µM) for two days.
smiles,measurement,setting,value
"Cc1ccc(C)n1-c1ccsc1C(=O)O [Pyrrothiogatain, 3-(2,5-dimethyl-1H-pyrrol-1-yl)thiophene-2-carboxylic acid]",pIC50,"GATA3; AlphaScreen, pyrrothiogatain 0 to 200 µM",~4.30 and 4.26
same,Inhibition of GATA3–DNA binding in the second screen,"GATA3; second screen, 0 to 10 µM",specifically inhibited
same,pIC50,GATA3-SOX4 interaction,4.02
same,"Expression of GATA3, protein level",GATA3 expression,not influenced

# Source: article PMC6874683, “Pyrrothiogatain acts as an inhibitor of GATA family proteins and inhibits Th2 cell differentiation in vitro” (Scientific Reports, 2019)
